Reference: PubChem BioAssay (NCI)
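Five compound concentrations were applied to cells in 96-well plates for 48 hours; endpoints were derived by simple linear interpolation of the resulting dose-response curve. TGI denotes the concentration required for complete inhibition of growth.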 Activity calls are given as the source filed them. Cut-off read from the data, not from the text of the source: active = GI50 below about 0.43 µM; inactive = the rest.

Assays:
Test in all cases: NCI anticancer screen, dose series, 48 h
[1] = test system: HCT-15 colon
[2] = test system: SF-539 CNS
[3] = test system: COLO 205 colon
[4] = test system: SK-MEL-28 melanoma
[5] = test system: CCRF-CEM leukemia
[6] = test system: HOP-92 NSCLC
[7] = test system: SNB-19 CNS
[8] = test system: IGROV1 ovarian
[9] = test system: A498 renal
[10] = test system: ACHN renal
[11] = test system: RXF 393 renal
[12] = test system: HT29 colon
[13] = test system: NCI-H460 lung
[14] = test system: UACC-62 melanoma
[15] = test system: CAKI-1 renal
[16] = test system: OVCAR-3 ovarian
[17] = test system: M19-MEL melanoma
[18] = test system: A549 NSCLC
[19] = test system: SW-620 colon
[20] = test system: SK-OV-3 ovarian
[21] = test system: DMS 273 small cell lung
[22] = test system: KM12 colon
[23] = test system: HCT-116 colon
[24] = test system: SK-MEL-5 melanoma
[25] = test system: KM20L2 colon
[26] = test system: SN12C renal
[27] = test system: HCC-2998 colon
[28] = test system: OVCAR-4 ovarian
[29] = test system: K-562 leukemia
[30] = test system: MALME-3M melanoma
[31] = test system: LOX IMVI melanoma
[32] = test system: SR leukemia
[33] = test system: OVCAR-5 ovarian
[34] = test system: SNB-75 CNS
[35] = test system: U251 CNS
[36] = test system: DMS 114 small cell lung
[37] = test system: HL-60(TB) leukemia
[38] = test system: UO-31 renal
[39] = test system: OVCAR-8 ovarian
[40] = test system: RPMI-8226 leukemia
[41] = test system: XF 498 CNS
[42] = test system: TK-10 renal
[43] = test system: DLD-1 colon
[44] = test system: MOLT-4 leukemia
[45] = test system: NCI-H226 lung
[46] = test system: HOP-62 NSCLC
[47] = test system: NCI-H23 lung
[48] = test system: SF-268 CNS
[49] = test system: LXFL 529 NSCLC
[50] = test system: M14 melanoma
[51] = test system: 786-0 renal
[52] = test system: SNB-78 CNS
[53] = test system: NCI-H522 lung
[54] = test system: SK-MEL-2 melanoma
[55] = test system: SF-295 CNS
[56] = test system: EKVX NSCLC
[57] = test system: UACC-257 melanoma

Work on Nc1ccc(C(=O)N/C(=C\c2cccc([N+](=O)[O-])c2)c2nc3ccccc3[nH]2)cc1 yielded a TGI [1] greater than 100 µM, a TGI [2] greater than 100 µM and a TGI [3] greater than 100 µM. For the same compound, the TGI [4] was greater than 100 µM, the TGI [5] was greater than 100 µM and the TGI [6] was greater than 66.4 µM. It also gave a TGI [7] greater than 100 µM, a TGI [8] greater than 100 µM and a TGI [9] greater than 100 µM. The TGI [10] was greater than 100 µM, the TGI [11] was 59.4 µM and the TGI [12] was greater than 100 µM. It also gave a TGI [13] greater than 100 µM, a TGI [14] greater than 100 µM and a TGI [15] greater than 100 µM. The TGI [16] was greater than 100 µM, the TGI [17] was greater than 100 µM and the TGI [18] was greater than 100 µM. It also gave a TGI [19] greater than 100 µM, a TGI [20] greater than 82.7 µM and a TGI [21] greater than 100 µM. For the same compound, the TGI [22] was greater than 100 µM, the TGI [23] was greater than 100 µM and the TGI [24] was greater than 100 µM. It also gave a TGI [25] greater than 100 µM, a TGI [26] greater than 100 µM and a TGI [27] greater than 100 µM. The TGI [28] was greater than 83.3 µM, the TGI [29] was greater than 100 µM and the TGI [30] was greater than 100 µM. The TGI [31] was greater than 100 µM, the TGI [32] was greater than 100 µM and the TGI [33] was greater than 100 µM. The TGI [34] was 69.4 µM, the TGI [35] was greater than 100 µM and the TGI [36] was greater than 100 µM. The TGI [37] was greater than 100 µM, the TGI [38] was 63.8 µM and the TGI [39] was greater than 100 µM. It also gave a TGI [40] greater than 100 µM, a TGI [41] of 59.8 µM and a TGI [42] greater than 100 µM. It also gave a TGI [43] greater than 100 µM, a TGI [44] greater than 100 µM and a TGI [45] greater than 100 µM. It also gave a TGI [46] of 67 µM, a TGI [47] greater than 100 µM and a TGI [48] greater than 100 µM. The TGI [49] was greater than 100 µM, the TGI [50] was greater than 100 µM and the TGI [51] was greater than 100 µM. The TGI [52] was greater than 100 µM, the TGI [53] was 98.8 µM and the TGI [54] was greater than 100 µM. It also gave a TGI [55] greater than 100 µM and a TGI [56] greater than 100 µM.

C=C1C(=O)O[C@@H]2C1C(OC(C)CCC)[C@@H](O)[C@@H](C)C(O)C1O[C@]1(C)[C@H]2O (stereo partly drawn) was tested, and the outcome [1] was “inactive”, the outcome [2] was “inactive” and the outcome [57] was “inactive”. The outcome [3] was “inactive”, the outcome [5] was “inactive” and the outcome [6] was “inactive”. For the same compound, the outcome [7] was “inactive”, the outcome [8] was “inactive” and the outcome [10] was “inactive”. The outcome [11] was “inactive”, the outcome [12] was “inactive” and the outcome [13] was “inactive”. The outcome [14] was “inactive”, the outcome [15] was “inactive” and the outcome [16] was “inactive”. For the same compound, the outcome [17] was “inactive”, the outcome [18] was “inactive” and the outcome [19] was “inactive”. For the same compound, the outcome [20] was “inactive”, the outcome [21] was “inactive” and the outcome [22] was “inactive”. For the same compound, the outcome [25] was “inactive”, the outcome [26] was “inactive” and the outcome [27] was “inactive”. For the same compound, the outcome [28] was “inactive”, the outcome [29] was “inactive” and the outcome [30] was “inactive”. For the same compound, the outcome [31] was “inactive”, the outcome [32] was “inactive” and the outcome [33] was “inactive”. The outcome [34] was “inactive”, the outcome [35] was “inactive” and the outcome [36] was “inactive”. The outcome [37] was “inactive”, the outcome [38] was “inactive” and the outcome [39] was “inactive”. The outcome [40] was “inactive”, the outcome [41] was “inactive” and the outcome [43] was “inactive”. The outcome [44] was “inactive”, the outcome [45] was “inactive” and the outcome [46] was “inactive”. For the same compound, the outcome [47] was “inactive”, the outcome [48] was “inactive” and the outcome [49] was “inactive”. For the same compound, the outcome [50] was “inactive”, the outcome [51] was “inactive” and the outcome [52] was “inactive”. The outcome [53] was “inactive”, the outcome [54] was “inactive” and the outcome [55] was “inactive”. The outcome [56] was “inactive”.
